Data taken from patent US20220305017A1, “COMPOSITIONS AND METHODS FOR THE TREATMENT OF ESTROGEN-DEPENDENT DISORDERS” (ObsEva S.A., priority 2019, published 2022).

System: human female patients diagnosed as having adenomyosis
Test: human clinical trial in adenomyosis (single-patient longitudinal case study and multi-patient analysis, n = 6)
Type: in vivo
Conditions: single patient
Description: This examples describes the results of a human clinical trial conducted to evaluate the ability of a GnRH antagonist, 3-[2-fluoro-5-(2,3-difluoro-6-methoxybenzyloxy)4-methoxyphenyl]-2,4-dioxo-1,2,3,4-tetrahydrothieno [3,4d]pyrimidine-5-carboxylic acid (represented by formula (VI)), or a pharmaceutically acceptable salt thereof, to treat adenomyosis, an estrogen-dependent disease, in human patients diagnosed as having this condition.
One aim of this study was to investigate the ability of the GnRH antagonist to maintain its therapeutic effects despite being administered to patients in a progressively lower dosage throughout the trial. To this end, the patients treated in this study was first administered the GnRH antagonist of formula (VI) in an amount of 200 mg/day during an initial 12-week period. The GnRH antagonist was then administered to the patients in a reduced amount of 100 mg/day during a subsequent 12-week period. The patients' responsiveness to the GnRH antagonist was monitored throughout the study.
In addition to assessing the effectiveness of the GnRH antagonist when administered at lower doses, another aim of this study was to evaluate the ability of the GnRH antagonist to sustain its therapeutic effects even after treatment was ceased altogether. Accordingly, after being periodically administered the GnRH antagonist of formula (VI) over the course of 24 weeks, first in an amount of 200 mg/day and then in an amount of 100 mg/day, treatment with the GnRH antagonist was halted entirely. The patients were then monitored during a post-treatment follow-up period to analyze the extent to which the therapeutic effects of the compound were sustained.
To test the effects of compound (VI), a total of n=6 human female patients diagnosed as having adenomyosis were administered compound (VI) in accordance with the dosing schedule described above. One of these patients in particular was closely monitored beginning well before their treatment with compound (VI) was initiated. The specific results of this patient's therapy are described in the section entitled “Single-Patient Longitudinal Case Study,” below. The cumulative set of results for all 6 patients is reported in the section entitled “Multi-Patient Analysis,” below.
As part of the clinical trial, a case study was conducted in which a single patient of reproductive age having clinically diagnosed adenomyosis was monitored during the course of treatment with compound (VI). The patient was nulliparous. Two years before the study began, the patient presented with heavy menstrual bleeding, pelvic pain, and dysmenorrhea. […] Their gynecologist prescribed ulipristal acetate (UPA), a selective progesterone receptor modulator (SPRM), to be administered in an amount of 5 mg/day over the course of a treatment period lasting three months.
The patient was then recommended for treatment with the GnRH antagonist represented by formula (VI) herein. Accordingly, the patient was orally administered compound (VI) in an amount of 200 mg/day for three months. Following this initial three-month period, the patient was orally administered compound (VI) in a reduced amount of 100 mg/day for a subsequent three-period. During both treatment periods, compound (VI) was administered to the patient in the form of a choline salt.
The patient was recommended for once-daily treatment with the GnRH antagonist of formula (VI). Accordingly, the patient was administered the GnRH antagonist of formula (VI) in an amount of 200 mg/day during a first treatment period, which lasted three months. At the conclusion of the first treatment period, the patient began a second treatment period in which they were administered compound (VI) in a reduced amount of 100 mg/day for three months. During both treatment periods, compound (VI) was administered to the patient in the form of a choline salt. […]

CC(=O)O[C@]1(C(C)=O)CC[C@H]2[C@@H]3CCC4=CC(=O)CCC4=C3[C@@H](c3ccc(N(C)C)cc3)C[C@@]21C [UPA, ulipristal acetate, reference compound]
bleeding during treatment (5 mg/day for three months): breakthrough bleeding and spotting | symptoms of pelvic pain and dysmenorrhea (5 mg/day for three months, before compound (VI)): worsened | adenomyotic lesions by MRI (end of 5 mg/day three-month course, FIG. 4B): significantly increased quantity of adenomyotic lesions
